In this test the target is rat MCH-1 (Rattus norvegicus, UniProt P97639). Kind of test: Radioligand binding assay at cloned rat MCH1 receptor ([3H] Compound A). Also on record: host or cells: Peak rapid 293 (Peakr293) cells, transient calcium phosphate transfection, membranes. Conditions: cloned rat MCH1 receptor, 0.08 nM [3H] Compound A, read-out: Ki (nM) rMCH1.

Where two headings read alike, the source gives them in different places.

Sequence of rat MCH-1 (P97639 whole entry): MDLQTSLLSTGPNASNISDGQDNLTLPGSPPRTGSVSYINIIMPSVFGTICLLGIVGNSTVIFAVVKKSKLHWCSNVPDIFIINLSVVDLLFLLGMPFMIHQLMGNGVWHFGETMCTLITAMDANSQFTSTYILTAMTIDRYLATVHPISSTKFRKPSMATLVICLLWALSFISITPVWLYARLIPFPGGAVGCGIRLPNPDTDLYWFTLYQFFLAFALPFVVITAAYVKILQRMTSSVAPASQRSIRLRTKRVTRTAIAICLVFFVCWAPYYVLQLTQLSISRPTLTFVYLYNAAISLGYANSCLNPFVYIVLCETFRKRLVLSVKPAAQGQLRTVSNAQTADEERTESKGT

In general, Ki refers to the equilibrium dissociation constant of an inhibitor or competing ligand from its target. For the molecule `CC(C)C(=O)Nc1cccc(C2CCN(CC[C@H](NC(=O)c3cnn(-c4ccc([N+](=O)[O-])cc4)c3C(F)(F)F)c3ccccc3)CC2)c1` [Example 327], under “membranes from Peakr293 cells”, the Ki was 7.7 nM.
Regarding `CC(C)C(=O)Nc1cccc(C2CCN(CCCc3c[nH]c4ccc(OC(F)(F)F)cc34)CC2)c1` [Example 416], the inhibition constant Ki (Peakr293 cell membranes) was determined as 12.6 nM.
Consider `COc1ccc2[nH]c(-c3cccc(F)c3)c(CCCN3CCC(c4cccc(NC(=O)C(C)C)c4)CC3)c2c1` [Example 701], for which the Ki (Peakr293 cell membranes) is 2.5 nM.
As for `Cc1ccc2[nH]cc(CCN3CCC(c4cccc(NC(=O)C(C)C)c4)CC3)c2c1` [Example 411], the Ki (Peakr293 cell membranes) was determined as 82.3 nM.
`Cc1cccc2c(CCCN3CCC(c4cccc(NC(=O)C(C)C)c4)CC3)c(-c3cccc(I)c3)[nH]c12` [Example 743]: under “Peakr293 cell membranes”, the Ki was determined as 4.1 nM.
Consider `CC(C)C(=O)Nc1cccc(C2CCN(CCc3c(-c4ccccc4)n(C)c4ccccc34)CC2)c1` [Example 386], for which, where the note is “membranes from Peakr293 cells”, the Ki was 26.3 nM.
As to `CC(C)C(=O)Nc1cccc(C2CCN(CCCc3c(-c4ccc(Cl)cc4)[nH]c4ccccc34)CC2)c1` [Example 708], for the setting “Peakr293 cell membranes”, the Ki amounted to 3.8 nM.
Regarding `CC(C)C(=O)Nc1cccc(C2CCN(CCCc3c(-c4cccc(I)c4)[nH]c4ccc(OC(F)(F)F)cc34)CC2)c1` [Example 741], the inhibition constant Ki (Peakr293 cell membranes) worked out at 2.8 nM.
Turning to `CC(C)C(=O)Nc1cccc(C2CCN(CCCCC(Oc3ccc(Cl)cc3)c3ccc(F)cc3)CC2)c1` (centres unmarked) [Example 937], where the note is “Peakr293 cell membranes”, the Ki was determined as 28.4 nM.
The same measure, in the same setting: the same measure for `Cc1cccc2c(CCCN3CCC(c4cccc(NC(=O)C(C)C)c4)CC3)c(-c3cccc([N+](=O)[O-])c3)[nH]c12` [Example 773]: 23.8 nM; for `CC(=O)c1cccc(OC(CCCCN2CCC(c3cccc(NC(=O)C(C)C)c3)CC2)c2ccc(Cl)cc2)c1` (centres unmarked) [Example 933]: 10.9 nM; for `CC(C)C(=O)Nc1cccc(C2CCN(CCCc3c(-c4cccc(Br)c4)[nH]c4c3ccc3ccccc34)CC2)c1` [Example 755]: 23.8 nM.
Turning to `CC(C)C(=O)Nc1cccc(C2CCN(Cc3cn(-c4ccc(F)cc4)c4ccccc34)CC2)c1` [Example 450], the Ki (Peakr293 cell membranes) turned out to be 7.1 nM.
As to `COc1ccc(OC(CCCCCN2CCC(c3cccc(NC(=O)C(C)C)c3)CC2)c2ccc(Cl)cc2)cc1` (centres unmarked) [Example 906], the Ki (Peakr293 cell membranes) came to 5.7 nM.
Same read-out and setting: for `CC(C)C(=O)Nc1cccc(C2CCN(CCCNC(=O)N3C(=O)OC[C@@H]3c3cc(F)cc(F)c3)CC2)c1` [Example 578] the value was 98.8 nM.
For the molecule `CC(=O)c1ccc(OC(CCCCCN2CCC(c3cccc(NC(=O)C(C)C)c3)CC2)c2ccccc2F)cc1` (centres unmarked) [Example 893], under “Peakr293 cell membranes”, the Ki was 23 nM.
`COc1ccc2[nH]c(C)c(CN3CCC(c4cccc(NC(=O)C(C)C)c4)CC3)c2c1` [Example 427]: the Ki (Peakr293 cell membranes) came to 248 nM.
Turning to `CC(C)C(=O)Nc1cccc(C2CCN(CC[C@H](NC(=O)Nc3ccc(Oc4ccccc4)cc3)c3ccccc3)CC2)c1` [Example 604], the inhibition constant (Ki) (Peakr293 cell membranes) was 36.8 nM.
In the case of `O=C(Nc1cccc(C2CCN(Cc3cn(-c4ccccc4Cl)c4ccccc34)CC2)c1)C1CC1` [Example 457], the Ki (Peakr293 cell membranes) is 27.4 nM.
As for `CCC(=O)Nc1cccc(C2CCN(CCCCC(=O)c3ccc([N+](=O)[O-])cc3)CC2)c1` [Example 556], the Ki (Peakr293 cell membranes) is 35.6 nM.
For the molecule `CC(C)C(=O)Nc1cccc(C2CCN(C[C@H](C)COc3ccc(Br)cc3)CC2)c1` [Example 356], the Ki (membranes from Peakr293 cells) was 54.5 nM.
Turning to `CC(=O)c1cccc(OC(CCCCN2CCC(c3cccc(NC(=O)C(C)C)c3)CC2)c2ccc(F)cc2)c1` (centres unmarked) [Example 922], where the note is “Peakr293 cell membranes”, the Ki is 25 nM.
For the molecule `CC(C)C(=O)Nc1cccc(C2CCN(CCCc3c(-c4ccc(Br)cc4)[nH]c4ccc(OC(F)(F)F)cc34)CC2)c1` [Example 754], the Ki (Peakr293 cell membranes) is 49.2 nM.
`CC(C)C(=O)Nc1cccc(C2CCN(CCCc3c(-c4cccc(I)c4)n(C)c4ccccc34)CC2)c1` [Example 738]: the Ki (Peakr293 cell membranes) came out at 10.2 nM.
Take `CC(C)C(=O)Nc1cccc(C2CCN(CCCc3c(-c4cccc(Cl)c4)[nH]c4ccccc34)CC2)c1` [Example 729]: for the setting “Peakr293 cell membranes”, the Ki is 1.7 nM.
For the molecule `CCC(=O)Nc1cccc(C2CCN(Cc3cn(-c4ccc(Cl)cc4)c4cc(Cl)ccc34)CC2)c1` [Example 475], the Ki (Peakr293 cell membranes) stood at 12.4 nM.
Take `CC(C)C(=O)Nc1cccc(C2CCN(Cc3c[nH]c4c(-c5cccc([N+](=O)[O-])c5)cccc34)CC2)c1` [Example 521]: the Ki (Peakr293 cell membranes) is 27 nM.
As for `CC(C)C(=O)Nc1cccc(C2CCN(CC[C@H](NS(=O)(=O)c3ccc(C(C)(C)C)cc3)c3ccccc3)CC2)c1` [Example 599], the Ki (Peakr293 cell membranes) came to 50 nM.
As to `CC(C)C(=O)Nc1cccc(C2CCN(CC[C@H](NC(=O)Nc3ccc(Cl)c(Cl)c3)c3ccccc3)CC2)c1` [Example 611], under “Peakr293 cell membranes”, the Ki is 65.1 nM.
On to `CC(C)C(=O)Nc1cccc(C2CCN(Cc3cccc4c3ccn4-c3cccc(F)c3)CC2)c1` [Example 875], for which the Ki (Peakr293 cell membranes) came out at 130 nM.
On to `CC(C)C(=O)Nc1cccc(C2CCN(CCCc3c(-c4ccccc4F)n(-c4ccccc4)c4ccccc34)CC2)c1` [Example 711], for which the Ki (Peakr293 cell membranes) amounted to 90.5 nM.
In the case of `CC(C)C(=O)Nc1cccc(C2CCN(CCCCC(=O)c3ccccc3I)CC2)c1` [Example 668], the Ki (Peakr293 cell membranes) was found to be 25.8 nM.
As for `CC(=O)c1cccc(O[C@@H](CCN2CCC(c3ccc(C)c(NC(=O)C(C)C)c3)CC2)c2ccccc2)c1` [Example 273], the Ki (membranes from Peakr293 cells) amounted to 196 nM.
As to `CC(C)C(=O)Nc1cccc(C2CCN(CCCCC(Oc3cc(C(F)(F)F)ccc3F)c3cccc(Cl)c3)CC2)c1` (centres unmarked) [Example 930], the Ki (Peakr293 cell membranes) was found to be 14.6 nM.
With `CCC(=O)Nc1cccc(C2CCN(CCCCC(=O)c3ccc(Cl)cc3)CC2)c1` [Example 561], under “Peakr293 cell membranes”, the Ki was 92.9 nM.
As to `CC(=O)c1cccc(OCCCCCN2CCC(c3cccc(NC(=O)C4CC4)c3)CC2)c1` [Example 382], under “membranes from Peakr293 cells”, the Ki worked out at 319 nM.
For `CC(C)C(=O)Nc1cccc(C2CCN(CCCCCc3c(-c4ccccc4)[nH]c4c3ccc3ccccc34)CC2)c1` [Example 398], where the note is “membranes from Peakr293 cells”, the Ki worked out at 13.6 nM.
Take `CC(C)C(=O)Nc1cccc(C2CCN(CCC(O)c3ccc(Br)cc3)CC2)c1` (centres unmarked) [Example 129]: the Ki (membranes from Peakr293 cells) amounted to 38.8 nM.
Consider `CC(C)C(=O)Nc1cccc(C2CCN(Cc3cccc4c3ccn4-c3ccc(F)cc3Cl)CC2)c1` [Example 865], for which the Ki (Peakr293 cell membranes) was 94.6 nM.
Take `COc1ccc(OC(CCCCN2CCC(c3cccc(NC(=O)C(C)C)c3)CC2)c2ccc(F)cc2)cc1` (centres unmarked) [Example 918]: for the setting “Peakr293 cell membranes”, the Ki was 29.3 nM.
On to `CC(C)C(=O)Nc1cccc(C2CCN(Cc3ccc(-c4cccc(OC(F)(F)F)c4)o3)CC2)c1` [Example 254], for which the Ki (membranes from Peakr293 cells) stood at 401 nM.
For `CC(C)C(=O)Nc1cccc(C2CCN(CCCCCc3c(-c4ccccc4)[nH]c4ccc(OC(F)(F)F)cc34)CC2)c1` [Example 393], the Ki (membranes from Peakr293 cells) was 9.5 nM.
`CCC(=O)Nc1ccc(C2CCN(CCC(c3ccccc3)c3ccccc3)CC2)cc1` [Example 799]: the Ki (Peakr293 cell membranes) was 371 nM.
Take `CC(C)C(=O)Nc1cccc(C2CCN(CCCCCCNC(=O)c3cc(C(C)(C)C)nn3Cc3ccccc3)CC2)c1` [Example 629]: the Ki (Peakr293 cell membranes) amounted to 42.9 nM.
For `CC(C)C(=O)Nc1cccc(C2CCN(Cc3ccc(-n4cncn4)cc3)CC2)c1` [Example 217], under “membranes from Peakr293 cells”, the inhibition constant (Ki) came out at 300 nM.
As to `CC(C)C(=O)Nc1cccc(C2CCN(CCCc3c(-c4ccc(F)cc4)[nH]c4ccccc34)CC2)c1` [Example 717], the Ki (Peakr293 cell membranes) worked out at 1.3 nM.
Same read-out and setting: for `Cc1cccc2c(CCCN3CCC(c4cccc(NC(=O)C(C)C)c4)CC3)c(-c3ccc(C(F)(F)F)cc3)[nH]c12` [Example 687] the value was 20.6 nM; for `CC(C)C(=O)Nc1cccc(C2CCN(CCCCC(Oc3ccc(Br)cc3)c3ccc(F)cc3)CC2)c1` (centres unmarked) [Example 919], 14 nM.
With `Cc1ccc(C2CCN(CCCC(c3ccc(F)cc3)c3ccc(F)cc3)CC2)cc1NC(=O)C(C)C` [Example 271], the inhibitory constant (Ki) (membranes from Peakr293 cells) came to 40.1 nM.
On to `CC(C)C(=O)Nc1cccc(C2CCN(CCCCC(Oc3cc(C(F)(F)F)ccc3F)c3ccc(F)cc3)CC2)c1` (centres unmarked) [Example 935], for which the Ki (Peakr293 cell membranes) was 19.7 nM.
Turning to `CC(C)C(=O)Nc1cccc(C2CCN(CCC(O)c3ccc(F)cc3)CC2)c1` (centres unmarked) [Example 127], the Ki (membranes from Peakr293 cells) is 168 nM.
`CC(C)C(=O)Nc1cccc(C2CCN(CCC(Oc3ccc(F)c(F)c3)c3ccc(F)cc3)CC2)c1` (centres unmarked) [Example 134]: the Ki (membranes from Peakr293 cells) stood at 36.6 nM.
As for `CC(C)C(=O)Nc1cccc(C2CCN(CCC(Oc3ccc(Cl)cc3)c3ccc(F)cc3)CC2)c1` (centres unmarked) [Example 131], the Ki (membranes from Peakr293 cells) was 11.9 nM.
On to `COc1ccccc1OC(CCCCCN1CCC(c2cccc(NC(=O)C(C)C)c2)CC1)c1ccccc1F` (centres unmarked) [Example 891], for which, for the setting “Peakr293 cell membranes”, the Ki was 6.5 nM.
In the case of `CC(C)C(=O)Nc1cccc(C2CCN(CCC(=O)c3ccc(Br)cc3)CC2)c1` [Example 117], the Ki (membranes from Peakr293 cells) was determined as 19 nM.
On to `CC(=O)Nc1cccc(C2CCN(CCCNC(=O)C3=C(C)NC(=O)CC3c3ccc(F)cc3F)CC2)c1` (centres unmarked) [Example 622], for which, under “Peakr293 cell membranes”, the Ki came to 162 nM.
On to `CC(C)C(=O)Nc1cccc(C2CCN(CCCC(OC(=O)Cc3ccc(F)cc3)c3ccccc3)CC2)c1` (centres unmarked) [Example 285], for which the Ki (membranes from Peakr293 cells) was found to be 10.3 nM.
Take `CCn1c(-c2ccc(Cl)cc2)c(CN2CCC(c3cccc(NC(=O)C(C)C)c3)CC2)c2ccccc21` [Example 434]: the Ki (Peakr293 cell membranes) worked out at 214 nM.
Consider `O=C(Nc1cccc(C2CCN(Cc3cn(-c4ccc(Cl)cc4)c4cc(Cl)ccc34)CC2)c1)C1CC1` [Example 476], for which the Ki (Peakr293 cell membranes) is 12.7 nM.
On the same count and under the same terms, the same measure for `CC(C)C(=O)Nc1cccc(C2CCN(Cc3cccc4ccn(-c5cccc(Cl)c5Cl)c34)CC2)c1` [Example 855]: 256 nM.
On to `COc1ccc2[nH]cc(CCCN3CCC(c4cccc(NC(=O)C(C)C)c4)CC3)c2c1` [Example 95], for which, where the note is “membranes from Peakr293 cells”, the Ki came out at 5.4 nM.
`CC(C)C(=O)Nc1cccc(C2CCN(CC[C@H](NC(=O)c3ccc([N+](=O)[O-])o3)c3ccccc3)CC2)c1` [Example 324]: where the note is “membranes from Peakr293 cells”, the Ki worked out at 76.8 nM.
Take `O=C(CCCN1CCC(c2cccc(NC(=O)C3CC3)c2)CC1)c1ccc(F)cc1` [Example 548]: the Ki (Peakr293 cell membranes) was determined as 126 nM.
On the same count and under the same terms, the same measure for `CC(C)C(=O)Nc1cccc(C2CCN(Cc3c(-c4ccccc4N)[nH]c4ccccc34)CC2)c1` [Example 424]: 114 nM; for `CCC(=O)Nc1cccc(C2CCN(CCCC(=O)c3ccc(OC)cc3)CC2)c1` [Example 531]: 105 nM.

Values taken from patent US6727264B1 (Synaptic Pharmaceutical Corporation, priority 2001, dated 2004).
